Assay results: ChEMBL document CHEMBL4311982, “Discovery of novel, potent, isosteviol-based antithrombotic agents” (Eur J Med Chem, 2019)
pKi: −log10 of the molar value.

Columns and labels:
Coagulation factor X = Coagulation factor X (Homo sapiens, UniProt P00742); experiment: Inhibition of human activated Factor X using S-2765 as substrate incubated for 15 mins followed by substrate addition and measured after 1 hr by chromogenic assay
Rattus norvegicus [1] = species: Rattus norvegicus; further: test concentration or dose not given here
[2] = Cmax in Wistar rat at 22 umol/kg, po measured upto 24 hrs by LC-MS/MS analysis; format: ADME, organism-based; set-up: dose 22 umol/kg, route oral; settings: in vivo
[3] = Half life in Wistar rat at 22 umol/kg, po measured upto 24 hrs by LC-MS/MS analysis; format: ADME, organism-based; settings: in vivo
[4] = AUC (0 to infinity) in Wistar rat at 22 umol/kg, po measured upto 24 hrs by LC-MS/MS analysis; format: ADME, organism-based; set-up: dose 22 umol/kg, time infinity, route oral; settings: in vivo
[5] = MRT in Wistar rat at 22 umol/kg, po measured upto 24 hrs by LC-MS/MS analysis; format: ADME, organism-based; settings: in vivo
[6] = Clearance in Wistar rat at 22 umol/kg, po measured upto 24 hrs by LC-MS/MS analysis; format: ADME, organism-based; settings: in vivo
[7] = Volume of distribution in Wistar rat at 22 umol/kg, po measured upto 24 hrs by LC-MS/MS analysis; format: ADME, organism-based; settings: in vivo
[8] = Oral bioavailability in Wistar rat at 22 umol/kg measured upto 24 hrs by LC-MS/MS analysis; format: ADME, organism-based; settings: in vivo
[9] = Half life in Wistar rat at 6.6 umol/kg, iv measured upto 24 hrs by LC-MS/MS analysis; format: ADME, organism-based; settings: in vivo
[10] = AUC (0 to infinity) in Wistar rat at 6.6 umol/kg, iv measured upto 24 hrs by LC-MS/MS analysis; format: ADME, organism-based; set-up: dose 6.6 umol/kg, time infinity, route intravenous; settings: in vivo
[11] = MRT in Wistar rat at 6.6 umol/kg, iv measured upto 24 hrs by LC-MS/MS analysis; format: ADME, organism-based; settings: in vivo
[12] = Clearance in Wistar rat at 6.6 umol/kg, iv measured upto 24 hrs by LC-MS/MS analysis; format: ADME, organism-based; settings: in vivo
[13] = Volume of distribution in Wistar rat at 6.6 umol/kg, iv measured upto 24 hrs by LC-MS/MS analysis; format: ADME, organism-based; settings: in vivo
Rattus norvegicus [14] = species: Rattus norvegicus; remark: listed apart in the source; further: test concentration or dose not given here
Rattus norvegicus [15] = species: Rattus norvegicus; remark: listed apart in the source; further: test concentration or dose not given here

Sequence of Coagulation factor X (P00742 41-179 limits assumed): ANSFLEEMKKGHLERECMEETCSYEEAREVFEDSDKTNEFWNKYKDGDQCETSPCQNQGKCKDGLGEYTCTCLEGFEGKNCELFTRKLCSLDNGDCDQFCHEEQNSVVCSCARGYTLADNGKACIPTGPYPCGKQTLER
Sequence of Coagulation factor X (P00742 235-488 limits assumed): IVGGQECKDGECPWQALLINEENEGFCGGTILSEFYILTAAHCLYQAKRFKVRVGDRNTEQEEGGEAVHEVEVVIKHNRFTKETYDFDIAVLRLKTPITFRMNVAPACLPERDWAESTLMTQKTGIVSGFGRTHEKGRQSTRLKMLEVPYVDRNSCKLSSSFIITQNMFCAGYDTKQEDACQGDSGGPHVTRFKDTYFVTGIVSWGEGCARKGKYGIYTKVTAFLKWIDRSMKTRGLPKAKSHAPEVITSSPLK

Row | Compound | pKi (Coagulation factor X) | also measured
1 | CCOC(=O)[C@]1(C)CCC[C@@]2(C)[C@@H]3CC[C@@]4(C)C[C@]3(CC[C@@H]21)C/C4=N\OC/C=C/c1cccc(C(F)(F)F)c1 | 5.31 | 
2 | CCOC(=O)c1ccc(CO/N=C2\C[C@]34CC[C@H]5[C@@](C)(CCC[C@@]5(C)C(=O)OCC)[C@@H]3CC[C@@]2(C)C4)o1 | 5.01 | 
3 | CCOC(=O)[C@]1(C)CCC[C@@]2(C)[C@@H]3CC[C@@]4(C)C[C@]3(CC[C@@H]21)C/C4=N\OC/C=C/c1ccc2oc3ccccc3c2c1 | 4.68 | 
4 | CCOC(=O)[C@]1(C)CCC[C@@]2(C)[C@@H]3CC[C@@]4(C)C[C@]3(CC[C@@H]21)C/C4=N\OC/C=C/c1ccc2c(c1)COC2=O | 4.68 | 
5 | CCOC(=O)[C@]1(C)CCC[C@@]2(C)[C@@H]3CC[C@@]4(C)C[C@]3(CC[C@@H]21)C/C4=N/O | 5.58 | TT (Rattus norvegicus [1]): 18.9 min
6 | CCOC(=O)[C@]1(C)CCC[C@@]2(C)[C@@H]3CC[C@@]4(C)C[C@]3(CC[C@@H]21)C/C4=N\OC/C=C/c1ccc(F)cc1 | 5.21 | 
7 | CCOC(=O)[C@]1(C)CCC[C@@]2(C)[C@@H]3CC[C@@]4(C)C[C@]3(CC[C@@H]21)C/C4=N\OC/C=C/c1ccc(C#N)cc1 | 4.87 | 
8 | CCOC(=O)[C@]1(C)CCC[C@@]2(C)[C@@H]3CC[C@@]4(C)C[C@]3(CC[C@@H]21)C/C4=N\OC/C=C/c1ccccc1 | 4.97 | 
9 | C=CCO/N=C1\C[C@]23CC[C@H]4[C@@](C)(CCC[C@@]4(C)C(=O)OCC)[C@@H]2CC[C@@]1(C)C3 | 5.07 | 
10 | CCOC(=O)[C@]1(C)CCC[C@@]2(C)[C@@H]3CC[C@@]4(C)C[C@]3(CC[C@@H]21)C/C4=N\OC/C=C/c1ccc2[nH]c3ccccc3c2c1 | 4.58 | 
11 | CCOC(=O)[C@]1(C)CCC[C@@]2(C)[C@@H]3CC[C@@]4(C)C[C@]3(CC[C@@H]21)C/C4=N\OC/C=C/c1ccc2occc2c1 | 4.99 | 
12 | CCOC(=O)[C@]1(C)CCC[C@@]2(C)[C@@H]3CC[C@@]4(C)C[C@]3(CC[C@@H]21)C/C4=N\OC/C=C/c1cccc2ccccc12 | 4.92 | 
13 | CCOC(=O)[C@]1(C)CCC[C@@]2(C)[C@@H]3CC[C@@]4(C)C[C@]3(CC[C@@H]21)C/C4=N\OCc1cc(Cl)ccc1Cl | 5.03 | 
14 | CCOC(=O)[C@]1(C)CCC[C@@]2(C)[C@@H]3CC[C@@]4(C)C[C@]3(CC[C@@H]21)CC4=O | 5.34 | TT (Rattus norvegicus [1]): 14.9 min
15 | CCOC(=O)[C@]1(C)CCC[C@@]2(C)[C@@H]3CC[C@@]4(C)C[C@]3(CC[C@@H]21)C/C4=N\OCc1ccc(Cl)c(F)c1 | 5.01 | 
16 | CCOC(=O)[C@]1(C)CCC[C@@]2(C)[C@@H]3CC[C@@]4(C)C[C@]3(CC[C@@H]21)C/C4=N\OCc1cccc(Cl)c1 | 4.74 | 
17 | C[C@@]12CC[C@@H]3[C@@](CC[C@H]4[C@@]3(C)CCC[C@@]4(C)C(=O)O)(C/C1=N/O)C2 | 5.10 | TT (Rattus norvegicus [1]): 12.9 min
18 | C[C@@]12CC[C@@H]3[C@@](CC[C@H]4[C@@]3(C)CCC[C@@]4(C)C(=O)O)(C[C@H]1O)C2 | 4.56 | TT (Rattus norvegicus [1]): 9.2 min
19 | CCOC(=O)[C@]1(C)CCC[C@@]2(C)[C@@H]3CC[C@@]4(C)C[C@]3(CC[C@@H]21)C[C@H]4O | 4.60 | TT (Rattus norvegicus [1]): 9.4 min
20 | COC(=O)[C@H](c1ccccc1Cl)N1CCc2sccc2C1 [CLOPIDOGREL] |  | TT (Rattus norvegicus [1]): 21 min
21 | C[C@@]12CC[C@@H]3[C@@](CC[C@H]4[C@@]3(C)CCC[C@@]4(C)C(=O)O)(CC1=O)C2 [ISOSTEVIOL] | 4.87 | TT (Rattus norvegicus [1]): 17.2 min
22 | O=C(NC[C@H]1CN(c2ccc(N3CCOCC3=O)cc2)C(=O)O1)c1ccc(Cl)s1 [RIVAROXABAN] |  | Cmax [2]: 1580 ng/mL; half-life [3]: 3.7 h; AUC(0-inf) [4]: 6980 ng·h/mL; MRT [5]: 5.4 h; CL/F [6]: 25 mL/min; Vd [7]: 8.1 L; bioavailability [8]: 59.7%; half-life [9]: 4.4 h; AUC(0-inf) [10]: 3510 ng·h/mL; MRT [11]: 6.3 h; clearance [12]: 15 mL/min; Vd [13]: 5.5 L; PT (Rattus norvegicus [14]): 19.5 s; APTT (Rattus norvegicus [15]): 21.9 s; TT (Rattus norvegicus [1]): 23.4 min

More lines, in order of rising pKi (Coagulation factor X), values ahead:

Row | pKi (Coagulation factor X) | Compound | also measured
23 | 5.33 | CCOC(=O)[C@]1(C)CCC[C@@]2(C)[C@@H]3CC[C@@]4(C)C[C@]3(CC[C@@H]21)C/C4=N\OC/C=C/c1ccc2[nH]ccc2c1 | 
24 | 5.36 | CCOC(=O)[C@]1(C)CCC[C@@]2(C)[C@@H]3CC[C@@]4(C)C[C@]3(CC[C@@H]21)C/C4=N\OCc1ccc(F)cc1 | 
25 | 5.38 | CCOC(=O)[C@]1(C)CCC[C@@]2(C)[C@@H]3CC[C@@]4(C)C[C@]3(CC[C@@H]21)C/C4=N\OC/C=C/c1ccc2ncccc2c1 | 
26 | 5.40 | CCOC(=O)[C@]1(C)CCC[C@@]2(C)[C@@H]3CC[C@@]4(C)C[C@]3(CC[C@@H]21)C/C4=N\OCc1cc(C)nn1C | 
27 | 5.44 | CCOC(=O)[C@]1(C)CCC[C@@]2(C)[C@@H]3CC[C@@]4(C)C[C@]3(CC[C@@H]21)C/C4=N\OC/C=C/c1ccc2nccnc2c1 | 
28 | 5.54 | CCOC(=O)[C@]1(C)CCC[C@@]2(C)[C@@H]3CC[C@@]4(C)C[C@]3(CC[C@@H]21)C/C4=N\OCc1c(C)noc1C | 
29 | 5.57 | CCOC(=O)[C@]1(C)CCC[C@@]2(C)[C@@H]3CC[C@@]4(C)C[C@]3(CC[C@@H]21)C/C4=N\OCc1ccc(C(F)(F)F)cc1 | 
30 | 5.58 | CCOC(=O)[C@]1(C)CCC[C@@]2(C)[C@@H]3CC[C@@]4(C)C[C@]3(CC[C@@H]21)C/C4=N\OC/C=C/c1ccc([N+](=O)[O-])cc1 | 
31 | 5.60 | CCOC(=O)[C@]1(C)CCC[C@@]2(C)[C@@H]3CC[C@@]4(C)C[C@]3(CC[C@@H]21)C/C4=N\OC/C=C/c1ccc(CN2CCOCC2)cc1 | 
32 | 5.70 | CCOC(=O)[C@]1(C)CCC[C@@]2(C)[C@@H]3CC[C@@]4(C)C[C@]3(CC[C@@H]21)C/C4=N\OC/C=C/c1cc(F)c(F)c(F)c1 | 
33 | 5.70 | CCOC(=O)[C@]1(C)CCC[C@@]2(C)[C@@H]3CC[C@@]4(C)C[C@]3(CC[C@@H]21)C/C4=N\OC/C=C/c1ccc(OC(F)(F)F)cc1 | 
34 | 5.71 | CCOC(=O)[C@]1(C)CCC[C@@]2(C)[C@@H]3CC[C@@]4(C)C[C@]3(CC[C@@H]21)C/C4=N\OCc1cnc(Cl)s1 | 
35 | 5.71 | CCOC(=O)[C@]1(C)CCC[C@@]2(C)[C@@H]3CC[C@@]4(C)C[C@]3(CC[C@@H]21)C/C4=N\OC/C=C/c1ccc(-c2cnco2)cc1 | 
36 | 5.72 | CCOC(=O)[C@]1(C)CCC[C@@]2(C)[C@@H]3CC[C@@]4(C)C[C@]3(CC[C@@H]21)C/C4=N\OC/C=C/c1c[nH]c(C(=O)OC)c1 | 
37 | 5.74 | CCOC(=O)[C@]1(C)CCC[C@@]2(C)[C@@H]3CC[C@@]4(C)C[C@]3(CC[C@@H]21)C/C4=N\OC1CCOCC1 | 
38 | 5.78 | CCOC(=O)[C@]1(C)CCC[C@@]2(C)[C@@H]3CC[C@@]4(C)C[C@]3(CC[C@@H]21)C/C4=N\OC/C=C/c1ccc(C(C)=O)cc1 | 
39 | 5.79 | CCOC(=O)[C@]1(C)CCC[C@@]2(C)[C@@H]3CC[C@@]4(C)C[C@]3(CC[C@@H]21)C/C4=N\OCC1OCCO1 | 
40 | 5.99 | CCOC(=O)[C@]1(C)CCC[C@@]2(C)[C@@H]3CC[C@@]4(C)C[C@]3(CC[C@@H]21)C/C4=N\OCc1ccc(OC(F)(F)F)cc1 | 
41 | 6.11 | CCOC(=O)[C@]1(C)CCC[C@@]2(C)[C@@H]3CC[C@@]4(C)C[C@]3(CC[C@@H]21)C/C4=N\OCCN1CCOCC1 | 
42 | 6.29 | CCOC(=O)[C@]1(C)CCC[C@@]2(C)[C@@H]3CC[C@@]4(C)C[C@]3(CC[C@@H]21)C/C4=N\OCc1csc2ccc(Cl)cc12 | 
43 | 6.49 | CCOC(=O)[C@]1(C)CCC[C@@]2(C)[C@@H]3CC[C@@]4(C)C[C@]3(CC[C@@H]21)C/C4=N\OCc1c(F)c(F)c(F)c(F)c1F | 
44 | 6.68 | CCOC(=O)[C@]1(C)CCC[C@@]2(C)[C@@H]3CC[C@@]4(C)C[C@]3(CC[C@@H]21)C/C4=N\OC/C=C/c1ccc2sccc2c1 | 
